The values below come from ChEMBL document CHEMBL4385613, “Discovery of Conformational Control Inhibitors Switching off the Activated c-KIT and Targeting a Broad Range of Clinically Relevant c-KIT Mutants” (J Med Chem, 2019).

Molecules are shown by their SMILES. Active and inactive are the calls of the source. The rule behind the calls is not given here.

In assay [1] the test system is GISTT1. The assay can be described thus: Antiproliferative activity against human GISTT1 cells harboring heterozygous V560-Y578 deletion mutant assessed as reduction in cell viability by MTS assay. The assay is classed as functional.
Assay [2] concerns GISTT1. Kind of assay: Antiproliferative activity against human GISTT1 cells harboring heterozygous V560-Y578 del mutation assessed as reduction in cell viability by methylene blue staining based assay. The assay is classed as functional.
The target of assay [3] is Mast/stem cell growth factor receptor Kit (Homo sapiens, UniProt P10721). Kind of assay: Inhibition of recombinant human N-terminal 6x-His-tagged c-KIT (547 to 935 residues)/(694 to 753 residues deletion) expressed in baculovirus infected Sf9 insect cells assessed as decrease in poly (Glu,Tyr) 4:1 phosphorylation measured after 150 mins in presence of ATP by ADP-glo based luminescence assay. (ADP-Glo first removes unused ATP, then detects ADP through luciferase.)

Assay [4] concerns GIST430. The assay can be described thus: Antitumor activity against human GIST430 cells harboring c-KIT exon 11 primary in-frame V560-L576 deletion mutant and exon 13 heterozygous secondary missense V654A mutant xenografted in NOD-SCID mouse assessed as tumor growth inhibition at 40 mg/kg, po administered for 2 weeks with 2 days rest after day 5 and measured thrice per week up to 21 days during compound dosing. Type of assay: functional, organism-based.

Assay [5] deals with GIST430. The assay can be described thus: Antiproliferative activity against human GIST430 cells harboring c-KIT exon 11 primary in-frame V560-L576 deletion mutant and exon 13 heterozygous secondary missense V654A mutant assessed as reduction in cell viability by MTS assay. The assay is classed as functional. In general terms: Tetrazolium dyes change colour on reduction, which living cells bring about.

The test system of assay [6] is GIST48. The assay can be described thus: Antiproliferative activity against human GIST48 cells harboring c-KIT exon 11 homozygous primary missense V560D mutant and exon 17 heterozygous secondary D820A mutant assessed as reduction in cell viability by MTS assay. Type of assay: functional.
Assay [7] deals with GIST430. The assay can be described thus: Antiproliferative activity against human GIST430 cells harboring c-KIT exon 11 primary in-frame V560-L576 deletion mutant and exon 13 heterozygous secondary missense V654A mutant assessed as reduction in cell viability by methylene blue staining based assay. The assay is classed as functional.
In assay [8] the test system is GIST48. The assay can be described thus: Antiproliferative activity against human GIST48 cells harboring c-KIT exon 11 homozygous primary missense V560D mutant and exon 17 heterozygous secondary D820A mutant assessed as reduction in cell viability by methylene blue staining based assay. The assay is classed as functional.
For assay [9], the system named is GIST882. The assay can be described thus: Antiproliferative activity against human GIST882 cells harboring c-KIT exon 13 homozygous primary K642E mutant assessed as reduction in cell viability by methylene blue staining based assay. The assay is classed as functional.
Assay [10] concerns GIST882. Kind of assay: Antiproliferative activity against human GIST882 cells harboring c-KIT exon 13 homozygous primary K642E mutant assessed as reduction in cell viability by MTS assay. Type of assay: functional.
In assay [11] the test system is GIST430. The assay can be described thus: Antitumor activity against human GIST430 cells harboring c-KIT exon 11 primary in-frame V560-L576 deletion mutant and exon 13 heterozygous secondary missense V654A mutant xenografted in NOD-SCID mouse assessed as tumor regression at 40 mg/kg, po administered for 2 weeks with 2 days rest after day 5 and measured thrice per week up to 21 days during compound dosing. Type of assay: functional, organism-based.

Turning to `CCc1cc(NC(=O)Nc2ccc(-c3cnc(Nc4cc(N5CCN(CC)CC5)ncn4)s3)cn2)no1`, the GI50 with GISTT1 [1] and in the assay with GISTT1 [2] was 0.001 µM throughout. The IC50 in assay [3] worked out at 0.043 µM.

Turning to `CCN1CCN(c2cc(Nc3ncc(-c4ccc(NC(N)=O)cc4)s3)ncn2)CC1`, the 50% growth inhibitory concentration (GI50) with GISTT1 [1] and with GISTT1 [2] was 0.086 µM throughout. The IC50 in [3] is 0.098 µM.

For the compound `CCN1CCN(c2cc(Nc3ncc(-c4ccc(NC(C)=O)cc4)s3)ncn2)CC1`, the GI50 in the assay with GISTT1 [1] and in the assay on GISTT1 [2] was 0.025 µM throughout. Further, the IC50 in assay [3] was determined as 0.13 µM.

Turning to `CCc1cc(NC(=O)Nc2ccc(-c3csc(Nc4cc(N5CCN(CC)CC5)nc(C)n4)n3)cc2)no1`, the GI50 in the assay on GISTT1 [1] and in the assay on GISTT1 [2] was over 1 µM throughout. Moreover, the IC50 in assay [3] was 0.95 µM.

`CCc1cc(NC(=O)N2CC=C(c3cnc(Nc4cc(N5CCN(CC)CC5)nc(C)n4)s3)CC2)no1`: the GI50 in the assay on GISTT1 [1] and in the assay with GISTT1 [2] was 0.0049 µM throughout. Also, in assay [3], the IC50 is 0.082 µM.

Turning to `CCc1cc(NC(=O)Nc2ccc(-c3cnc(Nc4nc(C)nc(N5CCN(CC)CC5)n4)s3)cc2)no1`, the GI50 in the assay on GISTT1 [1] and in the assay on GISTT1 [2] was 0.013 µM each time. Besides, in [3], the concentration for half-maximal inhibition (IC50) turned out to be 0.086 µM.

Consider `CCc1cc(NC(=O)NCC#Cc2cnc(Nc3cc(N4CCN(CC)CC4)ncn3)s2)no1`, for which the GI50 in the assay on GISTT1 [1] and in the assay with GISTT1 [2] was 0.0099 µM each time. Moreover, the IC50 in assay [3] was 0.038 µM.

As to `CCc1cc(NC(=O)NCCCc2cnc(Nc3cc(N4CCN(CC)CC4)nc(C)n3)s2)no1`, the GI50 with GISTT1 [1] and in the assay with GISTT1 [2] was 0.01 µM each time. The IC50 in [3] amounted to 0.05 µM.

For the compound `CCc1cc(NC(=O)Nc2ccc(-c3cnc(Nc4cc(N5CCN(CC)CC5)nc(C)n4)s3)cc2)no1`, the GI50 with GISTT1 [1] and in the assay with GISTT1 [2] was 0.0032 µM each time. In assay [3], the IC50 is 0.097 µM.

Consider `Cc1nc(Nc2ncc(-c3ccc(NC(=O)Nc4ccccc4)cc3)s2)cc(N2CCN(C)CC2)n1`, for which the concentration for 50% growth inhibition (GI50) in the assay with GISTT1 [1] and in the assay with GISTT1 [2] was 0.0054 µM each time. Besides, the IC50 in assay [3] is 0.02 µM.

In the case of `CCc1cc(NC(=O)Nc2ccc(-c3cnc(Nc4cc(N5CCC(N)C5)nc(C)n4)s3)cc2)no1` (configuration not stated), the GI50 in the assay with GISTT1 [1] and with GISTT1 [2] was 0.0064 µM throughout. For the same compound, the half-maximal inhibitory concentration (IC50) in assay [3] amounted to 0.015 µM.

For the compound `CCc1cc(NC(=O)Nc2ccc(-c3sc(Nc4cc(N5CCN(CC)CC5)ncn4)nc3C)cc2)no1`, the GI50 in the assay with GISTT1 [1] and in the assay on GISTT1 [2] was 0.0033 µM throughout. The half-inhibitory concentration (IC50) in assay [3] turned out to be 0.122 µM.

On to `CCN(CC)CCNC(=O)c1c(C)[nH]c(/C=C2\C(=O)Nc3ccc(F)cc32)c1C` [SUNITINIB], for which, in the assay with GIST430 [4], the TGI entry is “Active”. For the same compound, the GI50 in the assay with GISTT1 [1] worked out at 0.038 µM; with GIST430 [5], 0.047 µM; in the assay with GIST48 [6], 2 µM; in the assay with GIST430 [7], 0.047 µM; with GIST48 [8] it was 2 µM; in the assay with GISTT1 [2], 0.038 µM. In addition, the GI50 with GIST882 [9] and with GIST882 [10] was 0.064 µM in each case. Moreover, in the assay on GIST430 [11], the result was inactive.

On to `CCN1CCN(c2cc(Nc3ncc(-c4ccc(NS(=O)(=O)c5ccccc5)cc4)s3)nc(C)n2)CC1`, for which the GI50 in the assay with GISTT1 [1] and with GISTT1 [2] was 0.042 µM throughout. In addition, the IC50 in assay [3] came to 0.054 µM.

With `CCc1cc(NC(=O)Nc2ccc(-c3cnc(Nc4cc(N5CCN(CCO)CC5)ncn4)s3)cc2)no1`, the GI50 in the assay on GISTT1 [1] and in the assay with GISTT1 [2] was 0.0033 µM each time. Further, the IC50 in assay [3] stood at 0.071 µM.

One may read the GI50 as the concentration giving 50% growth inhibition. By IC50 is commonly meant the concentration at which inhibition is half-maximal.
